# Entries after “also recorded” stand apart in the source; their conditions may differ.
# Assays:
# JFH-1 HCV [1] = details: viral titer at 5 μM or 15 μM compared to untreated control
# Text: In vitro assay for anti-HCV efficacy. HCV studies typically involve infected patients and chimpanzees. However, recently, a robust HCV infection system was developed with cells derived from the Huh-7 human hepatoma cell line. It is based on the unique JFH-1 HCV consensus cDNA derived from an HCV patient. Using reverse genetics, the infectious virus can be rescued from this HCV clone. The recovered viable JFH virus can be passaged serially in Huh-7 cells. For this reason, this system is amenable for evaluating the activity of test compound for their anti-HCV efficacy.
# (§1) Briefly, 6×10^3 Huh7-1 cells are incubated overnight in each well of collagen-coated BioCoat 96-well plates (BD Biosciences, Bedford, Mass.) in 0.2 ml 10% medium composed of Dulbecco's modified Eagle's medium supplemented with 10% fetal bovine serum. Subsequently, at 2 day intervals, the cultures are replenished with fresh 0.2 ml 10% medium. After the cultures become confluent, they continue to be replenished at 2 day intervals with fresh 0.2 ml 10% medium that also includes 1% dimethyl sulfoxide (DMSO). After 20 days of these replenishments, the Huh7-1 cultures are incubated with fresh 1% medium (same as 10% medium except that the serum level is 1%) containing HCV at a multiplicity of infection (MOI) of 0.05 focus forming units (ffu)/cell. The HCV (JFH-lwt Huh7) stock titer is 1.5×10^5 ffu/mL. The next day (day 1 post-infection) and 2 days later (day 3 post-infection) the media are replenished with fresh 1% medium containing the test compounds dissolved in DMSO. On the 5th day of treatment with the compounds, cell lysates are collected for RNA isolation and Real Time-quantitative Reverse Transcription Polymerase Chain Reaction (RT-qPCR) and culture media are collected for cytotoxicity analysis.
# (§2) Total RNA is isolated from cells by the guanidine thiocyanate method using standard protocols. One μg RNA is used for cDNA synthesis using TaqMan reverse transcription reagents (Applied Biosystems, Foster City, Calif.) followed by real-time PCR using an Applied Biosystems 7300 real-time thermocycler. Thermal cycling consists of initial denaturation of 10 min at 95° C. followed by 40 cycles of denaturation (15 s at 95° C.) and annealing/extension (1 m at 60° C.). HCV and human glyceraldehyde-3-phosphate dehydrogenase (GAPDH) RNA levels are determined relative to a standard curve of serial dilutions of plasmid containing JFH-1 HCV or GAPDH cDNA. The PCR primers used to detect GAPDH and HCV are: GAPDH (NMX002046) 5′-[…]-3′(SEQ ID NO: 16) (sense) and 5′-[…]-3′(SEQ ID NO: 17) (anti-sense) JFH-1 HCV (AB047639) 5′-[…]-3′(SEQ ID NO: 18) (sense) and 5′-[…]-3′(SEQ ID NO: 19) (anti-sense).
# JFH-1 HCV [2] = assay: Co-therapy treatment for HCV infection (intracellular HCV RNA, with and without IFN-β-1b); format: cell-based, Hepatitis C virus; details: for Fold Inhibition: vs untreated control
# Method: as §1, §2
# Co-therapy Treatment for HCV Infection. […] The compounds described herein are tested to determine whether they increase the efficacy of either RBV, IFN-β-1b, or a combination thereof. Using the protocol described for determining chemical-evoked reduction in intracellular HCV RNA, the cells are treated with and without 10 U/mL IFN-β-1b in combination with 2.5 or 10 μM of the compounds described herein and for comparison with 10 μM MA and 80 μM RBV.
# HIV-Bal [3] = assay: HIV reverse transcription assay (2LTR circles in infected PBMCs); format: cell-based, HIV-1; details: 72 h post-infection; in comparison with vehicle (DMSO)
# Method: HIV reverse transcription assay. Compounds described herein inhibit 2LTR circles. Stimulated PBMCs are infected with HIV-Bal (2 ng/mL per 10^6 cells) for 5 h. PBMCs are then treated with compounds at desired concentrations and AZT (control) for 72 h post-infection. The cells are then washed three times with media and genomic DNA is prepared from samples using DNeasy Blood and Tissue Kit (Qiagen). For real time PCR analysis, the following primers are used to amplify 2LTR circles (by-products of reverse transcription): Forward 5′-[…] (SEQ ID NO: 5) and Reverse 5′-[…] (SEQ ID NO: 6). […] All results represent two or three independent experiments each performed in quadruplicates; *=p<0.05, **=p<0.01, ***=p<0.001 in comparison with vehicle ([…]).
# HIV-Bal [4] = assay: HIV genomic DNA integration (ALU-PCR in infected PBMCs); format: cell-based, HIV-1; details: 72 h post-infection; in comparison with vehicle (DMSO)
# Method: HIV Genomic DNA Integration. […] Stimulated PBMCs are infected with HIV-Bal (2 ng/mL per 10^6 cells) for 5 h. The PBMCs are then treated with compounds at desired concentrations and AZT (control) for 72 h post-infection. The cells are then washed three times with media. Genomic DNA is prepared from samples using DNeasy Blood and Tissue Kit (Qiagen). ALU-PCR is performed followed by real time PCR to quantify integrated viral genome. The following primers are used to amplify HIV transcripts: HIV LTR, Forward 5′-[…] (SEQ ID NO: 1) and Reverse 5′-[…] (SEQ ID NO: 2) and GAPDH—Forward 5′-[…] (SEQ ID NO: 3) and Reverse 5′-[…] (SEQ ID NO: 4). GADPH is used as endogenous control.
# HIV-Bal [5] = assay: HIV transcription (Rev, Gag and Env transcripts in infected PBMCs); format: cell-based, HIV-1; details: 72 h post-infection; in comparison with vehicle (DMSO)
# Method: HIV transcription. […] Stimulated PBMCs are infected with HIV-Bal (2 ng/mL per 10^6 cells) for 4-6 h. PBMCs are then treated with compounds at desired concentrations and AZT (control) for 72 h post-infection. The cells are then washed three times with media and genomic RNA is prepared from samples using RNEasy MiniKit (Qiagen). Real time RT-PCR is performed to detect mature viral early (Rev) and late transcripts (Gag and Env). The following primers are used to amplify HIV transcripts: Rev, Forward 5′-[…] (SEQ ID NO: 7) and Reverse 5′-[…] (SEQ ID NO: 8); Env, Forward 5′-[…] (SEQ ID NO: 9) and Reverse 5′-[…] (SEQ ID NO: 10); Gag, Forward 5′-[…] (SEQ ID NO: 11) and Reverse 5′-[…] (SEQ ID NO: 12); GAPDH, Forward 5′-[…] (SEQ ID NO: 3) and Reverse 5′-[…] (SEQ ID NO: 4). GADPH is used as endogenous control.
# [6] = system: Bovine Viral Diarrhea Virus strain NADL; assay: Anti-BVDV efficacy, cytopathic (CPE) assay in Bovine Turbinate cells (MTT); format: cell-based; details: cell survival at 10 μM compared to untreated control; TABLE 4(a)
# Method: Assay for Anti-BVDV efficacy. Bovine Turbinate (BT) cells maintained as monolayers in disposable cell culture labware are used for the antiviral efficacy test. Prior to testing, host cell cultures are seeded onto the 96-well cell culture plates and used approximately 48 hours after seeding. […] The growth medium (GM) and maintenance medium (MM) include Dulbecco's Modified Eagle Media (DMEM) with L-glutamine (ATCC #30-2002), 10% Horse serum and penicillin/streptomycin (10,000 units of penicillin and 10,000 μg of streptomycin per mL, Life Technologies #15140-122 or similar) for a final concentration of 100 units penicillin and 100 μg streptomycin in the medium. Bovine Viral Diarrhea Virus strain NADL from BSLI high-titer virus stock is used. Prior to use, aliquots of the stock virus are removed and thawed from a −70° C. freezer. The BVDV is diluted in a maintenance medium (MM) to obtain 0.1 Multiplicity of Infection (MOI). Cytopathic (CPE) assay. CPE refers to degenerative changes in BT tissue culture induced by BVDV as a consequence of its multiplication. BT cell cultures are washed with PBS, and 100 μL aliquots of MM are added to the cells and incubated in a CO2 incubator for 2 hours. After incubation, the MM is removed; the cells washed again with PBS and overlaid with 100 μL of the different concentrations of test compounds. The plates are incubated in a CO2 incubator for 48 to 72 hours. […] This assay is a colorimetric assay that measures the activity of enzymes that reduce MTT to the purple color formazan dye. CPE is confirmed using an Inverted Compound Microscope.
# HIV-Bal [7] = assay: HIV entry (real time RT-PCR of HIV LTR in pre-treated PBMCs); format: cell-based, HIV-1; details: 10 μM or 25 μM; PBMCs pre-treated 1 h and 4 h
# Text: The following primers are used to amplify HIV transcripts: HIV LTR, Forward 5′-[…] (SEQ ID NO: 1) and Reverse 5′-[…] (SEQ ID NO: 2) and GAPDH—Forward 5′-[…] (SEQ ID NO: 3) and Reverse 5′-[…] (SEQ ID NO: 4). GADPH is used as endogenous control.
compound,measurement,setting,value
O=C(Nc1cccc(-c2cccc(F)c2)c1)C1CCN(Cc2cccc3cccnc23)CC1 [Example 16],HCV Antiviral Activity,JFH-1 HCV [1],++ (“++” corresponds to ≦60% viral titer at 5 μM)
same,Average HCV copies/μg RNA,JFH-1 HCV [2]; 2.5 μM +IFN-β-1b (10 U/mL),1.1 × 10^5 copies/μg RNA
same,Fold Inhibition,JFH-1 HCV [2]; 2.5 μM +IFN-β-1b (10 U/mL),85 fold
same,Average HCV copies/μg RNA,"JFH-1 HCV [2]; 2.5 μM, alone",3.3 × 10^6 copies/μg RNA
same,Fold Inhibition,"JFH-1 HCV [2]; 2.5 μM, alone",3 fold
same,Average HCV copies/μg RNA,JFH-1 HCV [2]; 10 μM +IFN-β-1b (10 U/mL),9.6 × 10^4 copies/μg RNA
same,Fold Inhibition,JFH-1 HCV [2]; 10 μM +IFN-β-1b (10 U/mL),97 fold
same,Average HCV copies/μg RNA,"JFH-1 HCV [2]; 10 μM, alone",2.0 × 10^6 copies/μg RNA
same,Fold Inhibition,"JFH-1 HCV [2]; 10 μM, alone",5 fold
same,reduction of intracellular HCV RNA levels by the combination with IFN-β-1b (in words),JFH-1 HCV [2]; combination with IFN-β-1b,more effective than that achieved with RBV; also recorded: reduces intracellular HCV RNA levels more effectively than either agent alone
CC#CC(=O)N1CCC(C(=O)Nc2cccc(-c3cc4ccccc4[nH]3)c2)CC1 [Example 57],inhibition of HIV reverse transcription (2LTR circles),HIV-Bal [3],significantly inhibits HIV reverse transcription
same,inhibition of HIV viral integration,HIV-Bal [4],significantly inhibits viral integration at each concentration; also recorded: significantly inhibits HIV viral integration
same,HCV Antiviral Activity,JFH-1 HCV [1],++ (“++” corresponds to ≦60% viral titer at 5 μM)
same,"inhibition of HIV transcription (Rev, Gag, Env)",HIV-Bal [5],significantly inhibits viral transcription at each concentration; also recorded: significantly inhibits HIV transcription
same,BVDV Antiviral Activity,[6],+++ (“+++” corresponds to ≧75 cell survival at 10 μM)
same,effect on HIV entry,HIV-Bal [7],did not have an effect on HIV entry
COc1cccc(CN2CCC(C(=O)Nc3ccc(-c4nc5ccccc5[nH]4)cc3)CC2)c1 [Example 58],HCV Antiviral Activity,JFH-1 HCV [1],++ (“++” corresponds to ≦60% viral titer at 5 μM)
same,BVDV Antiviral Activity,[6],+++ (“+++” corresponds to ≧75 cell survival at 10 μM)
CCc1ccc(CN2CCC(C(=O)Nc3ccc(-c4nc5ccccc5[nH]4)cc3)CC2)o1 [Example 59],HCV Antiviral Activity,JFH-1 HCV [1],++ (“++” corresponds to ≦60% viral titer at 5 μM)
same,BVDV Antiviral Activity,[6],++ (“++” corresponds to >50 but <75 cell survival at 10 μM)
O=C(Nc1cccc(-c2cc3ccccc3[nH]2)c1)C1CCN(C(=O)c2cncs2)CC1 [Example 60],HCV Antiviral Activity,JFH-1 HCV [1],+ (“+” corresponds to ≦60% viral titer at 15 μM)
same,BVDV Antiviral Activity,[6],+++ (“+++” corresponds to ≧75 cell survival at 10 μM)
Cc1c[nH]c2ncnc(N3CCC(C(=O)Nc4ccc(-c5nc6ccccc6[nH]5)cc4)CC3)c12 [Example 99],BVDV Antiviral Activity,[6],+++ (“+++” corresponds to ≧75 cell survival at 10 μM)
Cc1c[nH]c2ncnc(N3CCC(C(=O)Nc4cccc(-c5cc6ccccc6[nH]5)c4)CC3)c12 [Example 100],BVDV Antiviral Activity,[6],+++ (“+++” corresponds to ≧75 cell survival at 10 μM)
Cc1c[nH]c2ncnc(N3CCC(C(=O)Nc4ccc(Oc5ccccc5F)cc4)CC3)c12 [Example 101],BVDV Antiviral Activity,[6],++ (“++” corresponds to >50 but <75 cell survival at 10 μM)
Cc1c[nH]c2ncnc(N3CCC(C(=O)Nc4cccc(-c5cccc(F)c5)c4)CC3)c12 [Example 102],BVDV Antiviral Activity,[6],+++ (“+++” corresponds to ≧75 cell survival at 10 μM)
Cc1c[nH]c2ncnc(N3CCC(C(=O)Nc4cccc(Br)c4)CC3)c12 [Example 103],BVDV Antiviral Activity,[6],"+ (“+” corresponds to ≦50 cell survival at 10 μM, and improved survival over untreated control)"
"NC(=O)c1ncn([C@@H]2O[C@H](CO)[C@@H](O)[C@H]2O)n1 [RBV, ribavirin, reference compound]",Average HCV copies/μg RNA,JFH-1 HCV [2]; 80 μM +IFN-β-1b (10 U/mL),1.8 × 10^5 copies/μg RNA
same,Fold Inhibition,JFH-1 HCV [2]; 80 μM +IFN-β-1b (10 U/mL),52 fold
same,Average HCV copies/μg RNA,"JFH-1 HCV [2]; 80 μM, alone",5.0 × 10^6 copies/μg RNA
same,Fold Inhibition,"JFH-1 HCV [2]; 80 μM, alone",2 fold

# Source: patent US9511070B2, “Heterocyclyl carboxamides for treating viral diseases” (NOVADRUG, LLC, priority 2012, dated 2016)
